This is an account of results in article PMC4899283 (Structure (London, England : 1993), 2016).

In assay [1] the target is T1, full-length bcMalT (EIIB and EIIC domains) (Bacillus cereus, UniProt Q63GK8).
T1 sequence (Q63GK8 1-545): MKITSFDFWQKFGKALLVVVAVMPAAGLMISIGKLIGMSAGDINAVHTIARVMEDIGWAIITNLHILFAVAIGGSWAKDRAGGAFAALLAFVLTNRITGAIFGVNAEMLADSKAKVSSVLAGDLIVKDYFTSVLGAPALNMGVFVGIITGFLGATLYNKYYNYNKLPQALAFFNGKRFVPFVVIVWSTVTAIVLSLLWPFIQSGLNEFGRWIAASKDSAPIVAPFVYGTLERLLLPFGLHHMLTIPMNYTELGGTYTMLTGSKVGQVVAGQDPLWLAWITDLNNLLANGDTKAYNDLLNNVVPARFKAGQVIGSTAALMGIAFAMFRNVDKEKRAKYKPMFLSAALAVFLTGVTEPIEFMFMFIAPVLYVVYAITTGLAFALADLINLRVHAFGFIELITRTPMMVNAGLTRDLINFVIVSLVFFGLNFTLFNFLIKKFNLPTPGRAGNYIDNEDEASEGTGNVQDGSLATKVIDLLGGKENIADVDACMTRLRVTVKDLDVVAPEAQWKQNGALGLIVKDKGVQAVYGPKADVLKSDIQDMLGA
The experiment in a line: scintillation proximity assay, competition with [3H]maltose. The assay is classed as binding. As to conditions: 1 μM [3H]maltose, 4 mM LDAO, pH 7.5, 150 mM NaCl, 4 °C; homologous competition. Background: In a scintillation proximity assay essentially only radioactivity close to the scintillant gives light.

The target of assay [2] is T1, full-length bcMalT (EIIB and EIIC domains). The assay is described as above. Type of assay: binding. As to conditions: 1 μM [3H]maltose, 4 mM LDAO, pH 7.5, 150 mM NaCl, 4 °C.

On to `OC[C@H]1O[C@H](O[C@H]2[C@H](O)[C@@H](O)C(O)O[C@@H]2CO)[C@H](O)[C@@H](O)[C@@H]1O` (some centres unmarked) [maltose], for which, in assay [1], the IC50 (as a rule, the point on the concentration scale where inhibition reaches its midpoint) is 4.5 ± 1.1 µM.

`OC[C@H]1O[C@@](CO)(O[C@H]2O[C@H](CO)[C@@H](O)[C@H](O)[C@H]2O)[C@@H](O)[C@@H]1O` [sucrose]: in assay [2], the “binding competition at 500 μM” value is listed as “No significant binding was observed for a number of other sugars tested, with the exception of sucrose”.
